From patent publication US6358885B1, “Substituted phenylheterocyclic herbicides” (Mississippi State University, priority 1992, dated 2002)

Legend:
Test in all cases: Test B preemergence/postemergence greenhouse plant response rating 0 to 10
cotton = assay type: in vivo, Gossypium hirsutum; conditions: for Plant response rating, Cotton: 0 to 10 scale
In short: (§1)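 Planted seeds are treated preemergence with compound dissolved in a non-phytotoxic solvent, while postemergence applications go onto plants of two to eighteen cm. Plants stay in the greenhouse twelve to sixteen days and are then rated visually relative to controls.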

corn = assay type: in vivo, Zea mays; conditions: for Plant response rating, Corn: 0 to 10 scale
In short: as §1

barley = assay type: in vivo, Hordeum vulgare; conditions: for Plant response rating, Barley: 0 to 10 scale
In short: as §1

morningglory = assay type: in vivo, Ipomoea hederacea; conditions: for Plant response rating, Morningglory: 0 to 10 scale
In short: as §1

velvetleaf = assay type: in vivo, Abutilon theophrasti; conditions: for Plant response rating, Velvetleaf: 0 to 10 scale
In short: as §1

cheatgrass = assay type: in vivo, Bromus secalinus; conditions: for Plant response rating, Cheatgrass: 0 to 10 scale
In short: as §1

barnyardgrass = assay type: in vivo, Echinochloa crus-galli; conditions: for Plant response rating, Barnyardgrass: 0 to 10 scale
In short: as §1

wild oat = assay type: in vivo, Avena fatua; conditions: for Plant response rating, Wild oat: 0 to 10 scale
In short: as §1

sugar beet = assay type: in vivo, Beta vulgaris; conditions: for Plant response rating, Sugar beet: 0 to 10 scale
In short: as §1

giant foxtail = assay type: in vivo, Setaria faberii; conditions: for Plant response rating, Giant foxtail: 0 to 10 scale
In short: as §1

rice = assay type: in vivo, Oryza sativa; conditions: for Plant response rating, Rice: 0 to 10 scale
In short: as §1

sorghum = assay type: in vivo, Sorghum bicolor; conditions: for Plant response rating, Sorghum: 0 to 10 scale
In short: as §1

wheat = assay type: in vivo, Triticum aestivum; conditions: for Plant response rating, Wheat: 0 to 10 scale
In short: as §1

wild buckwheat = assay type: in vivo, Polygonum convolvulus; conditions: for Plant response rating, Wild buckwheat: 0 to 10 scale
In short: as §1

chickweed = assay type: in vivo, Stellaria media; conditions: for Plant response rating, Chickweed: 0 to 10 scale
In short: as §1

soybean = assay type: in vivo, Glycine max; conditions: for Plant response rating, Soybean: 0 to 10 scale
In short: as §1

purple nutsedge = assay type: in vivo, Cyperus rotundus; conditions: for Plant response rating, Nutsedge: 0 to 10 scale
In short: as §1

crabgrass = assay type: in vivo, Digitaria spp.; conditions: for Plant response rating, Crabgrass: 0 to 10 scale
In short: as §1

rape = assay type: in vivo, Brassica napus; conditions: for Plant response rating, Rape: 0 to 10 scale
In short: as §1

bedstraw = assay type: in vivo, Galium aparine; conditions: for Plant response rating, Bedstraw: 0 to 10 scale
In short: as §1

cocklebur = assay type: in vivo, Xanthium pensylvanicum; conditions: for Plant response rating, Cocklebur: 0 to 10 scale
In short: as §1

lambsquarters = assay type: in vivo, Chenopodium album; conditions: for Plant response rating, Lambsquarter: 0 to 10 scale
In short: as §1

blackgrass = assay type: in vivo, Alopecurus myosuroides; conditions: for Plant response rating, Blackgrass: 0 to 10 scale
In short: as §1

SMILES: O=C1COc2cc(F)c(-c3nn4c(c3Br)CCCC4)cc2N1 [Compound 80]
- Plant response rating, Cotton (cotton; POSTEMERGENCE, Rate 50 g/ha): 10
- Plant response rating, Cotton (cotton; PREEMERGENCE, Rate 50 g/ha): 0
- Plant response rating (0 to 10 scale), Cotton (cotton; PREEMERGENCE, Rate 200 g/ha): 0
- Plant response rating, Cotton (cotton; Rate 200 g/ha, POSTEMERGENCE): 10
- Plant response rating, Corn (corn; POSTEMERGENCE, Rate 50 g/ha): 4
- Plant response rating, Corn (corn; PREEMERGENCE, Rate 50 g/ha): 0
- Plant response rating (0 to 10 scale), Corn (corn; PREEMERGENCE, Rate 200 g/ha): 0
- Plant response rating, Corn (corn; Rate 200 g/ha, POSTEMERGENCE): 5
- Plant response rating, Barley (barley; POSTEMERGENCE, Rate 50 g/ha): 3
- Plant response rating, Barley (barley; PREEMERGENCE, Rate 50 g/ha): 0
- Plant response rating (0 to 10 scale), Barley (barley; PREEMERGENCE, Rate 200 g/ha): 0
- Plant response rating, Barley (barley; Rate 200 g/ha, POSTEMERGENCE): 4
- Plant response rating, Morningglory (morningglory; POSTEMERGENCE, Rate 50 g/ha): 10
- Plant response rating, Morningglory (morningglory; PREEMERGENCE, Rate 50 g/ha): 5
- Plant response rating (0 to 10 scale), Morningglory (morningglory; PREEMERGENCE, Rate 200 g/ha): 10
- Plant response rating, Morningglory (morningglory; Rate 200 g/ha, POSTEMERGENCE): 10
- Plant response rating, Velvetleaf (velvetleaf; POSTEMERGENCE, Rate 50 g/ha): 9
- Plant response rating, Velvetleaf (velvetleaf; PREEMERGENCE, Rate 50 g/ha): 9
- Plant response rating (0 to 10 scale), Velvetleaf (velvetleaf; PREEMERGENCE, Rate 200 g/ha): 10
- Plant response rating, Velvetleaf (velvetleaf; Rate 200 g/ha, POSTEMERGENCE): 10
- Plant response rating, Cheatgrass (cheatgrass; POSTEMERGENCE, Rate 50 g/ha): 5
- Plant response rating, Cheatgrass (cheatgrass; PREEMERGENCE, Rate 50 g/ha): 2
- Plant response rating (0 to 10 scale), Cheatgrass (cheatgrass; PREEMERGENCE, Rate 200 g/ha): 3
- Plant response rating, Cheatgrass (cheatgrass; Rate 200 g/ha, POSTEMERGENCE): 6
- Plant response rating, Barnyardgrass (barnyardgrass; POSTEMERGENCE, Rate 50 g/ha): 6
- Plant response rating, Barnyardgrass (barnyardgrass; PREEMERGENCE, Rate 50 g/ha): 0
- Plant response rating (0 to 10 scale), Barnyardgrass (barnyardgrass; PREEMERGENCE, Rate 200 g/ha): 6
- Plant response rating, Barnyardgrass (barnyardgrass; Rate 200 g/ha, POSTEMERGENCE): 8
- Plant response rating, Wild oat (wild oat; POSTEMERGENCE, Rate 50 g/ha): 4
- Plant response rating, Wild oat (wild oat; PREEMERGENCE, Rate 50 g/ha): 2
- Plant response rating (0 to 10 scale), Wild oat (wild oat; PREEMERGENCE, Rate 200 g/ha): 7
- Plant response rating, Wild oat (wild oat; Rate 200 g/ha, POSTEMERGENCE): 5
- Plant response rating, Sugar beet (sugar beet; POSTEMERGENCE, Rate 50 g/ha): 10
- Plant response rating, Sugar beet (sugar beet; PREEMERGENCE, Rate 50 g/ha): 8
- Plant response rating (0 to 10 scale), Sugar beet (sugar beet; PREEMERGENCE, Rate 200 g/ha): 9
- Plant response rating, Sugar beet (sugar beet; Rate 200 g/ha, POSTEMERGENCE): 10
- Plant response rating, Giant foxtail (giant foxtail; POSTEMERGENCE, Rate 50 g/ha): 4
- Plant response rating, Giant foxtail (giant foxtail; PREEMERGENCE, Rate 50 g/ha): 0
- Plant response rating (0 to 10 scale), Giant foxtail (giant foxtail; PREEMERGENCE, Rate 200 g/ha): 2
- Plant response rating, Giant foxtail (giant foxtail; Rate 200 g/ha, POSTEMERGENCE): 7
- Plant response rating, Rice (rice; POSTEMERGENCE, Rate 50 g/ha): 6
- Plant response rating, Rice (rice; PREEMERGENCE, Rate 50 g/ha): 2
- Plant response rating (0 to 10 scale), Rice (rice; PREEMERGENCE, Rate 200 g/ha): 4
- Plant response rating, Rice (rice; Rate 200 g/ha, POSTEMERGENCE): 8
- Plant response rating, Sorghum (sorghum; POSTEMERGENCE, Rate 50 g/ha): 4
- Plant response rating, Sorghum (sorghum; PREEMERGENCE, Rate 50 g/ha): 0
- Plant response rating (0 to 10 scale), Sorghum (sorghum; PREEMERGENCE, Rate 200 g/ha): 0
- Plant response rating, Sorghum (sorghum; Rate 200 g/ha, POSTEMERGENCE): 6
- Plant response rating, Wheat (wheat; POSTEMERGENCE, Rate 50 g/ha): 4
- Plant response rating, Wheat (wheat; PREEMERGENCE, Rate 50 g/ha): 0
- Plant response rating (0 to 10 scale), Wheat (wheat; PREEMERGENCE, Rate 200 g/ha): 2
- Plant response rating, Wheat (wheat; Rate 200 g/ha, POSTEMERGENCE): 4
- Plant response rating, Wild buckwheat (wild buckwheat; POSTEMERGENCE, Rate 50 g/ha): 10
- Plant response rating, Wild buckwheat (wild buckwheat; PREEMERGENCE, Rate 50 g/ha): 3
- Plant response rating (0 to 10 scale), Wild buckwheat (wild buckwheat; PREEMERGENCE, Rate 200 g/ha): 3
- Plant response rating, Wild buckwheat (wild buckwheat; Rate 200 g/ha, POSTEMERGENCE): 10
- Plant response rating, Chickweed (chickweed; POSTEMERGENCE, Rate 50 g/ha): 4
- Plant response rating, Chickweed (chickweed; PREEMERGENCE, Rate 50 g/ha): 0
- Plant response rating (0 to 10 scale), Chickweed (chickweed; PREEMERGENCE, Rate 200 g/ha): 3
- Plant response rating, Chickweed (chickweed; Rate 200 g/ha, POSTEMERGENCE): 7
- Plant response rating, Soybean (soybean; POSTEMERGENCE, Rate 50 g/ha): 8
- Plant response rating, Soybean (soybean; PREEMERGENCE, Rate 50 g/ha): 0
- Plant response rating (0 to 10 scale), Soybean (soybean; PREEMERGENCE, Rate 200 g/ha): 0
- Plant response rating, Soybean (soybean; Rate 200 g/ha, POSTEMERGENCE): 9
- Plant response rating, Nutsedge (purple nutsedge; POSTEMERGENCE, Rate 50 g/ha): 2
- Plant response rating, Nutsedge (purple nutsedge; PREEMERGENCE, Rate 50 g/ha): 0
- Plant response rating (0 to 10 scale), Nutsedge (purple nutsedge; PREEMERGENCE, Rate 200 g/ha): 0
- Plant response rating, Nutsedge (purple nutsedge; Rate 200 g/ha, POSTEMERGENCE): 4
- Plant response rating, Crabgrass (crabgrass; POSTEMERGENCE, Rate 50 g/ha): 4
- Plant response rating, Crabgrass (crabgrass; PREEMERGENCE, Rate 50 g/ha): 0
- Plant response rating (0 to 10 scale), Crabgrass (crabgrass; PREEMERGENCE, Rate 200 g/ha): 3
- Plant response rating, Crabgrass (crabgrass; Rate 200 g/ha, POSTEMERGENCE): 6
- Plant response rating, Rape (rape; POSTEMERGENCE, Rate 50 g/ha): 10
- Plant response rating, Rape (rape; PREEMERGENCE, Rate 50 g/ha): 4
- Plant response rating (0 to 10 scale), Rape (rape; PREEMERGENCE, Rate 200 g/ha): 10
- Plant response rating, Rape (rape; Rate 200 g/ha, POSTEMERGENCE): 10
- Plant response rating, Bedstraw (bedstraw; POSTEMERGENCE, Rate 50 g/ha): 8
- Plant response rating, Bedstraw (bedstraw; PREEMERGENCE, Rate 50 g/ha): 0
- Plant response rating (0 to 10 scale), Bedstraw (bedstraw; PREEMERGENCE, Rate 200 g/ha): 2
- Plant response rating, Bedstraw (bedstraw; Rate 200 g/ha, POSTEMERGENCE): 10
- Plant response rating, Cocklebur (cocklebur; POSTEMERGENCE, Rate 50 g/ha): 9
- Plant response rating, Cocklebur (cocklebur; PREEMERGENCE, Rate 50 g/ha): 0
- Plant response rating (0 to 10 scale), Cocklebur (cocklebur; PREEMERGENCE, Rate 200 g/ha): 0
- Plant response rating, Cocklebur (cocklebur; Rate 200 g/ha, POSTEMERGENCE): 10
- Plant response rating, Lambsquarter (lambsquarters; POSTEMERGENCE, Rate 50 g/ha): 10
- Plant response rating, Lambsquarter (lambsquarters; PREEMERGENCE, Rate 50 g/ha): 10
- Plant response rating (0 to 10 scale), Lambsquarter (lambsquarters; PREEMERGENCE, Rate 200 g/ha): 10
- Plant response rating, Lambsquarter (lambsquarters; Rate 200 g/ha, POSTEMERGENCE): 10
- Plant response rating, Blackgrass (blackgrass; POSTEMERGENCE, Rate 50 g/ha): 3
- Plant response rating, Blackgrass (blackgrass; PREEMERGENCE, Rate 50 g/ha): 0
- Plant response rating (0 to 10 scale), Blackgrass (blackgrass; PREEMERGENCE, Rate 200 g/ha): 3
- Plant response rating, Blackgrass (blackgrass; Rate 200 g/ha, POSTEMERGENCE): 6
